# Reference: patent US8431563B2 (priority 2010, dated 2013)
# Molecular target: T1, GK-GKRP (Homo sapiens, UniProt Q14397)
# T1 sequence (Q14397 1-625): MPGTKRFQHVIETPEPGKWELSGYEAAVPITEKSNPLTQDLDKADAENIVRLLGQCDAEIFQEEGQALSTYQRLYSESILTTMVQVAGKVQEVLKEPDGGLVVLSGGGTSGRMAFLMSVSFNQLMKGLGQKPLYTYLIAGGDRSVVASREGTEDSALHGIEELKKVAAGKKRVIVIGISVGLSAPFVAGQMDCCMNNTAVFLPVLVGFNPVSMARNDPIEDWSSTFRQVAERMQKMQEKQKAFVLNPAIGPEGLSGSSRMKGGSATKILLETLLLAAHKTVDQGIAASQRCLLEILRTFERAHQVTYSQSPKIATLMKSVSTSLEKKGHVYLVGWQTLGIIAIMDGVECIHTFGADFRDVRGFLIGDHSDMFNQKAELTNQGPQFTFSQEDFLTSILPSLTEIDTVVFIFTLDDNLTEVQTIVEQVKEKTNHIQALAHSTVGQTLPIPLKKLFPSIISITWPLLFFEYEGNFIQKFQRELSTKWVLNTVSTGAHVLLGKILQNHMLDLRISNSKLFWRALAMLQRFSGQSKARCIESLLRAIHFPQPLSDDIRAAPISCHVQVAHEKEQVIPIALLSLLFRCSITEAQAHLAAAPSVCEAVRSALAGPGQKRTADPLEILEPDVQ
# Assay: biochemical
# Conditions: GK-GKRP IC50 (Binding)
row,IC50,SMILES
1,323 nM,"CC(O)(c1ccc(N2CCN(S(=O)(=O)c3cccs3)C[C@@H]2CNS(=O)(=O)c2ccc(F)cc2)cc1)C(F)(F)F (mixture of isomers) [Example 254, 4-fluoro-N-(((2S)-4-(2-thiophenylsulfonyl)-1-(4-(2,2,2-trifluoro-1-hydroxy-1-methylethyl)phenyl)-2-piperazinyl)methyl)benzenesulfonamide]"
2,2 nM,"CC(O)(c1ccc(N2CCN(S(=O)(=O)c3cccs3)C[C@@H]2CN(c2ccc(F)cc2)S(C)(=O)=O)cc1)C(F)(F)F (mixture of isomers) [Example 255, N-(4-fluorophenyl)-N-(((2R)-4-(2-thiophenylsulfonyl)-1-(4-(2,2,2-trifluoro-1-hydroxy-1-methylethyl)phenyl)-2-piperazinyl)methyl)methanesulfonamide]"
3,23 nM,"CC(=O)N(C[C@H]1CN(S(=O)(=O)c2cccs2)CCN1c1ccc(C(C)(O)C(F)(F)F)cc1)c1ccc(F)cc1 (mixture of isomers) [Example 256, N-(4-fluorophenyl)-N-(((2S)-4-(2-thiophenylsulfonyl)-1-(4-(2,2,2-trifluoro-1-hydroxy-1-methylethyl)phenyl)-2-piperazinyl)methyl)acetamide]"
4,112 nM,"CC#CC1CN(S(=O)(=O)c2nnc(N)s2)CCN1c1ccc(C(O)(C(F)(F)F)C(F)(F)F)cc1 (racemic) [Example 249, 2-(4-(4-((5-amino-1,3,4-thiadiazol-2-yl)sulfonyl)-2-(1-propyn-1-yl)-1-piperazinyl)phenyl)-1,1,1,3,3,3-hexafluoro-2-propanol]"
5,15 nM,"CC#CC1CN(S(=O)(=O)c2cnc(N)c(F)c2)CCN1c1ccc(C(O)(C(F)(F)F)C(F)(F)F)cc1 (racemic) [Example 250, 2-(4-(4-((6-amino-5-fluoro-3-pyridinyl)sulfonyl)-2-(1-propyn-1-yl)-1-piperazinyl)phenyl)-1,1,1,3,3,3-hexafluoro-2-propanol]"
6,229 nM,"CC(O)(c1cnc(-c2ccc(S(=O)(=O)c3ccc(N)nc3)cc2)nc1)C(F)(F)F (racemic) [Example 265, 2-(2-(4-((6-amino-3-pyridinyl)sulfonyl)phenyl)-5-pyrimidinyl)-1,1,1-trifluoro-2-propanol]"
7,15 nM,"CC#CC1CN(S(=O)(=O)c2ccc(N)nc2)CCN1c1ncc(C(C)(O)C(F)(F)F)cn1 (single isomer, unassigned) [Example 251 First Eluting Peak from Set One, 2-(2-(4-((6-amino-3-pyridinyl)sulfonyl)-2-(1-propyn-1-yl)-1-piperazinyl)-5-pyrimidinyl)-1,1,1-trifluoro-2-propanol]"
8,11300 nM,"CC#CC1CN(S(=O)(=O)c2ccc(N)nc2)CCN1c1ncc(C(C)(O)C(F)(F)F)cn1 (single isomer, unassigned) [Example 251 First Eluting Peak from Set Two, 2-(2-(4-((6-amino-3-pyridinyl)sulfonyl)-2-(1-propyn-1-yl)-1-piperazinyl)-5-pyrimidinyl)-1,1,1-trifluoro-2-propanol]"
9,9 nM,"CC#CC1CN(S(=O)(=O)c2ccc(N)nc2)CCN1c1ncc(C(C)(O)C(F)(F)F)cn1 (single isomer, unassigned) [Example 251 Second Eluting Peak from Set One, 2-(2-(4-((6-amino-3-pyridinyl)sulfonyl)-2-(1-propyn-1-yl)-1-piperazinyl)-5-pyrimidinyl)-1,1,1-trifluoro-2-propanol]"
10,15300 nM,"CC#CC1CN(S(=O)(=O)c2ccc(N)nc2)CCN1c1ncc(C(C)(O)C(F)(F)F)cn1 (single isomer, unassigned) [Example 251 Second Eluting Peak from Set Two, 2-(2-(4-((6-amino-3-pyridinyl)sulfonyl)-2-(1-propyn-1-yl)-1-piperazinyl)-5-pyrimidinyl)-1,1,1-trifluoro-2-propanol]"
11,251 nM,"CC(O)(c1ccc(N2CCN(S(=O)(=O)c3cccs3)C[C@@H]2CN2CCNC(C(F)(F)F)C2)cc1)C(F)(F)F (single isomer, unassigned) [Example 270 Peak 1]"
12,463 nM,"CC(O)(c1ccc(N2CCN(S(=O)(=O)c3cccs3)C[C@@H]2CN2CCNC(C(F)(F)F)C2)cc1)C(F)(F)F (single isomer, unassigned) [Example 270 Peak 2]"
13,743 nM,"CC(O)CC1CN(S(=O)(=O)c2ccc(N)nc2)CCN1c1ncc(C(O)(C(F)(F)F)C(F)(F)F)cn1 (stereo not drawn) [Example 244, 2-(2-(4-((6-amino-3-pyridinyl)sulfonyl)-2-(2-hydroxypropyl)-1-piperazinyl)-5-pyrimidinyl)-1,1,1,3,3,3-hexafluoro-2-propanol]"
14,21 nM,"CC#C[C@H]1CN(S(=O)(=O)c2ccccc2)CCN1c1ccc(C(O)(C(F)(F)F)C(F)(F)F)cc1 [Example 247, 1,1,1,3,3,3-hexafluoro-2-(4-((2S)-4-(phenylsulfonyl)-2-(1-propyn-1-yl)-1-piperazinyl)phenyl)-2-propanol]"
15,15 nM,CC#CC1CN(S(=O)(=O)c2nccs2)CCN1c1ccc(C(O)(C(F)(F)F)C(F)(F)F)cc1 (stereo not drawn) [Example 248]
16,834 nM,"CC#Cc1cc(C(O)(C(F)(F)F)C(F)(F)F)ccc1N1CCN(S(=O)(=O)c2cccs2)CC1 [Example 262, 1,1,1,3,3,3-hexafluoro-2-(3-(1-propyn-1-yl)-4-(4-(2-thiophenylsulfonyl)-1-piperazinyl)phenyl)-2-propanol]"
17,217 nM,"C[C@H]1COCC(=O)N1C[C@H]1CN(S(=O)(=O)c2cccs2)CCN1c1ccc([C@](C)(O)C(F)(F)F)cc1 [Example 272, (S)-5-methyl-4-(((S)-4-(tiophen-2-ylsulfonyl)-1-(4-((S)-1,1,1-trifluoro-2-hydroxypropan-2-yl)phenyl)piperazin-2-yl)methyl)morpholin-3-one]"
18,49 nM,"Nc1ccc(S(=O)(=O)N2CCN(c3ccc(C(O)(C(F)(F)F)C(F)(F)F)cc3)[C@@H](CS(=O)(=O)c3ccccc3)C2)cn1 [Example 273, 2-(4-((2R)-4-((6-amino-3-pyridinyl)sulfonyl)-2-((phenylsulfonyl)methyl)-1-piperazinyl)phenyl)-1,1,1,3,3,3-hexafluoro-2-propanol]"

row,SMILES,IC50
1,"CC(c1ccccc1)N(C[C@H]1CN(S(=O)(=O)c2cccs2)CCN1c1ccc(C(C)(O)C(F)(F)F)cc1)S(C)(=O)=O (mixture of isomers) [Example 252, N-(1-phenylethyl)-N-(((2R)-4-(2-thiophenylsulfonyl)-1-(4-(2,2,2-trifluoro-1-hydroxy-1-methylethyl)phenyl)-2-piperazinyl)methyl)methanesulfonamide]",671 nM
2,"CC(C)CS(=O)(=O)N(C[C@H]1CN(S(=O)(=O)c2cccs2)CCN1c1ccc(C(C)(O)C(F)(F)F)cc1)c1cccnc1 (mixture of isomers) [Example 253, 2-methyl-N-3-pyridinyl-N-(((2R)-4-(2-thiophenylsulfonyl)-1-(4-(2,2,2-trifluoro-1-hydroxy-1-methylethyl)phenyl)-2-piperazinyl)methyl)-1-propanesulfonamide]",35 nM
3,"Nc1ccc(S(=O)(=O)N2CCN(c3ncc(C(O)(C(F)(F)F)C(F)(F)F)cn3)[C@@H](CN3C4CCC3COC4)C2)cn1 [Example 271, 2-(2-((2S)-4-((6-amino-3-pyridinyl)sulfonyl)-2-(3-oxa-8-azabicyclo[3.2.1]oct-8-ylmethyl)-1-piperazinyl)-5-pyrimidinyl)-1,1,1,3,3,3-hexafluoro-2-propanol]",3 nM
